Test results as given in patent publication US20200368198A1, “METHODS FOR INCREASING FERTILITY” (NEWSOUTH INNOVATIONS PTY LIMITED, priority 2017, published 2020).
Several values for one entry are separate records, joined by “and”; a condition that tells them apart may be missing. Equal entries are not always repeated.

Key:
[1] = system: offspring of C57BL6 females; experiment: Offspring of NMN treated females: development and glucose tolerance; format: in vivo, mice; details: offspring from NMN treated versus untreated females
Text: FIG. 5. Offspring from NMN treated females, or non-NMN treated females, were maintained on a chow diet or subjected to feeding of a high fat diet (HFD) from 8 weeks of age. A) is a graph of body weights of animals until 23 weeks of age. B) is a graph of fat mass of animals after 7 weeks of HFD feeding. C) is a graph of glucose tolerance test in animals at 7 weeks after chow or HFD feeding (2 g/kg, 6 hr fast). D) is a graph of area under the curve for glucose tolerance tests. Each group represents offspring from at least 7 different females. Error bars are SD.
To determine whether NMN treatment could improve overall, functional fertility, we conducted a breeding trial in C57BL6 mice. Both pregnancy success rates and litter size (FIG. 4A) were improved in animals that received NMN, further confirming the importance of this mechanism to female fertility. Offspring from females that received NMN treatment developed at a similar rate to offspring from untreated females, even after challenging with high fat feeding (FIG. 5A and 5B).

C57BL6 females = experiment: Reversal design: primordial follicle counts in ovarian histology sections; format: in vivo, mice; details: doxorubicin 10 mg/kg i.p., NMN in drinking water started four weeks later for 4 weeks; per mouse
Text: (§1) Ovaries were dissected from freshly euthanased animals, and preserved in 10% neutral buffered formalin for 24 hr, followed by 70% ethanol, until embedding in paraffin blocks. Blocks were sectioned on a microtome and subjected to haematoxylin and eosin (H&E) staining. Primordial follicles were manually counted by a blinded investigator.
Next, we decided to investigate whether NMN treatment delivered some time following chemotherapy treatment could actively reverse chemotherapy induced infertility. […] Four weeks later, they received NMN in their drinking water, for another 4 weeks, prior to being euthanased for either oocyte studies or ovarian histological analysis. The rationale of this experimental design is to investigate whether NMN has the ability to induce regeneration of the ovary. According to the standard dogma of reproductive biology, mammals are born with a set number of follicles which are slowly released as oocytes over the course of a lifetime, with the ovaries incapable of regenerating new follicles.

SwissTacAusb female mice = experiment: Oocyte yield in high fat fed mice treated with NMN; format: in vivo; details: SwissTacAusb females, 3 months high fat feeding; NMN versus untreated high fat fed littermates
Text: Systemic treatment with the NAD^+ precursor nicotinamide mononucleotide (NMN) increases intracellular NAD^+ levels, and we hypothesised that NMN treatment could restore the activity of SIRT2 to stabilise BubR1 and maintain oocyte reserve and competence into later ages. We obtained 15 month-old female mice, an age at which this species is functionally infertile, and treated them with NMN through addition to drinking water (2 g/L) for 4 weeks. Animals were super-ovulated, and oocyte yield was assessed. […] Obesity is a major risk factor for female infertility, and to assess whether a similar mechanism was at work, we subjected young SwissTacAusb female mice to 3 months of high fat feeding, followed by NMN treatment for 4 weeks.

ovaries = experiment: Histological analysis of ovaries from NMN treated females; format: in vivo, mice
Text: as §1
(§2) To determine the impact of NMN on spindle assembly, oocytes from C57BL6 mice were next stained for spindle structure (FIG. 3F).

oocytes / blastocysts = experiment: IVF of oocytes from 8 month old NMN treated mice: blastocyst formation and inner cell mass; format: in vivo
Description: In addition, the length of treatment with NAD raising compounds (e.g. NMN) positively correlates with improved fertility. Eight month old ex-breeder C57BL6 female mice, which are at an age of declining natural fertility, were treated with NMN through addition to drinking water (2 g/L) for 48 hours, 1 week, 2 weeks, and 4 weeks (6 per group). Animals were then treated with PMSG and then hCG to promote oocyte maturation and ovulation. MII stage oocytes were collected from the oviduct, and fertilized in vitro. Oocytes were then cultured into blastocysts for the next 6 days, at which point these blastocysts were subjected to differential staining to assess blastocyst cell number in either the inner cell mass or the trophectoderm. Inner cell mass cell number is accepted as an important predictor of implantation success rates.
This was measured through performing IVF in oocytes obtained from 8 month old C57BL6 ex-breeder female mice, which were assigned to the following 4 groups (6 per group) . . . • Daily oral gavage, saline control, normal drinking water • Daily oral gavage, 10 mg NMN in saline, normal drinking water • No gavage, normal (control) drinking water • No gavage, NMN in drinking water (2 g/L)
These animals were at an age at which fertility normally declines in this species. Animals were maintained on each of the above treatments for 10 days. Animals were then treated with PMSG and then hCG to promote oocyte maturation and ovulation. MII stage oocytes were collected from the oviduct, and fertilized in vitro. Oocytes were then cultured into blastocysts for the next 6 days, and blastocyst formation rates were assessed. Results at days 5 and six are shown in FIGS. 38 and 39, respectively. Blastocyst formation and hatching were assessed as indicators of developmental competence. Blastocyst formation is a clinically relevant outcome: during clinical IVF, blastocyst stage and hatching blastocyst stage embryos are preferentially transferred over earlier stage embryos into a person wishing to obtain a pregnancy.

oocytes [2] = experiment: Spindle structure staining of oocytes from aged NMN treated mice; format: in vivo
Text: as §2
As with other sirtuins, SIRT2 is critically dependent for its activity on levels of its enzymatic co-factor NAD^+, which naturally declines with old age. We hypothesized that increasing NAD^+ availability during old age could restore SIRT2 activity, and recapitulate the improvements in fertility observed with old age during SIRT2 over-expression. To test this, non-genetically modified C57BL6 female mice were treated with the NAD^+ precursor nicotinamide mononucleotide (NMN), as in the Examples above. Mice were treated at 15 months of age, when mice normally experience ovarian failure (FIG. 34). Three weeks later, oocytes were harvested, and analysed for spindle structure (FIG. 35).

oocytes [3] = experiment: Meiotic progression (GVBD, PBE) of harvested oocytes, doxorubicin with or without NMN; format: in vivo, mice; details: doxorubicin and/or NMN
Text: Once harvested from ovaries, oocytes were stored in IBMX media to prevent progression into meiosis.

NC(=O)c1ccc[n+]([C@@H]2O[C@H](COP(=O)([O-])O)[C@@H](O)[C@H]2O)c1 [NMN, nicotinamide mononucleotide]
Glucose tolerance tests in offspring [1]: no change | Primordial follicle numbers in ovarian histology sections (C57BL6 females): 108 and 86 and 94 and 78 | Oocyte yield in high fat fed mice (SwissTacAusb female mice): higher oocyte yield | Oogonial reserve, histological analysis of ovaries (ovaries): improved oogonial reserve | Efficacy on blastocyst formation after IVF: drinking water versus single daily oral gavage (oocytes / blastocysts; 8 month old C57BL6, NMN 2 g/L drinking water versus 10 mg daily gavage, 10 days): better efficacy | Efficacy versus length of NMN administration (inner cell mass cell number of blastocysts) (oocytes / blastocysts; NMN 2 g/L drinking water for 48 hours, 1, 2, 4 weeks): time dependent increase in efficacy | Ability of oocytes to form blastocysts following fertilisation in vitro (oocytes / blastocysts; oocytes from NMN treated versus untreated mice): enhanced ability to form blastocysts | Spindle structure in oocytes (oocytes [2]; 15 month old C57BL6 females, NMN 3 weeks): reverse severe spindle defects | Spindle and chromosome arrangement in oocytes (oocytes [2]; aged C57BL6 females, NMN 2 g/L drinking water, 4 weeks): bi-polar, barrel-shaped arrangement with well-aligned chromosomes | Proportion of harvested oocytes achieving germinal vesicle breakdown (oocytes [3]; 1 h after release from IBMX): 17 % of total | Proportion of harvested oocytes achieving germinal vesicle breakdown (oocytes [3]; 2 h after release from IBMX): 67 % of total | Proportions of oocytes achieving polar body extrusion (oocytes [3]; 14 hr following GVBD): 79 | Proportions of oocytes achieving polar body extrusion (oocytes [3]; 16 hr following GVBD): 50 | Proportions of oocytes achieving polar body extrusion (oocytes [3]; 20 hr following GVBD): 80
